Results reported in US20150353495A1 (PORTOLA PHARMACEUTICALS, INC., priority 2010, published 2015).

How the values were obtained:
JAK3 = biological target: T1, JAK3 (Homo sapiens, UniProt P52333); assay: Z'-LYTE kinase assay JAK3; format: biochemical
T1 construct: 5 μl of catalytic domain recombinant Kinase enzyme+Tyr peptide substrate (Invitrogen, CA); purchased Invitrogen
Method in brief: (§1)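 Catalytic-domain recombinant kinase was incubated with Tyr6 FRET peptide, ATP and compound (1% DMSO final) for 1 h at room temperature. Protease development followed for 1 h, cleaving only non-phosphorylated peptide. Inhibition of phosphorylation was read as coumarin/fluorescein FRET fluorescence.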

TYK2 = biological target: T2, TYK2 (Homo sapiens, UniProt P29597); assay: Z'-LYTE kinase assay TYK2; format: biochemical
T2 construct: 5 μl of catalytic domain recombinant Kinase enzyme+Tyr peptide substrate (Invitrogen, CA); purchased Invitrogen
T2 sequence (P29597 897-1176 limits assumed): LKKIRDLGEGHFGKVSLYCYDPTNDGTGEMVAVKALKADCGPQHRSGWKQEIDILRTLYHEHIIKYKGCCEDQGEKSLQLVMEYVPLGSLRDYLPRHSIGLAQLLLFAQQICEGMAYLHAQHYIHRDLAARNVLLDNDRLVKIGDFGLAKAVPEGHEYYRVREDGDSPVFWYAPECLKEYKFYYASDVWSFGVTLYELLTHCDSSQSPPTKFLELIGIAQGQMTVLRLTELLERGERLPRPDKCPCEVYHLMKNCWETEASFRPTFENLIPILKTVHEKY
Method in brief: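 Recombinant catalytic-domain TYK2 with Tyr6 peptide in Z′-LYTE FRET format, 1% DMSO final, kinase reaction 1 h at room temperature, then protease development 1 h. Fluorescence read at 445/520 nm (excitation 400 nm), percent phosphorylation vs no-inhibitor control, IC50 from 4-parameter logistic fit.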

[1] = tested on: JAK1/3 signaling to STAT6 in Ramos B cells; assay: IL4 stimulation of JAK1/3 signaling to STAT6 in Ramos B cells (pSTAT6 Y641, FACS); format: cell-based; conditions: Homo sapiens; for inhibition at 0.2 µM: 0.2 uM compound, read-out: IL-4/STAT6 in Ramos Percent Inhibition at 0.2 uM; for inhibition at 1 µM: 1.0 uM compound, read-out: IL-4/STAT6 in Ramos Percent Inhibition at 1.0 uM
Method: IL4 stimulation of JAK1/3 signaling to STATE in Ramos B cells:
As an alternative strategy to measure effect of JAK3 inhibitors on JAK1/3 dependent cytokine signaling pathways, IL4 stimulation of the Ramos Burkett's B cell line is used. IL4 engages a receptor consisting of the IL4 receptor alpha chain and the common gamma chain. […] Ramos B cells are suspended in tissue culture media containing 10% fetal calf serum at 10×10̂6 cells/ml. 100 μl aliquots are pre-treated for 1 hour with various concentrations of compound, and then stimulated for 15 minutes with 15 ng IL4. The signaling reaction is terminated by fixing in 2% paraformaldehyde for 10 minutes at room temperature. Fixed cells are then washed and permeablized by suspension in 100% methanol at −80° C. Following overnight incubation at 4° C., cells are washed and resuspended in PBS containing 0.5% bovine serum albumin containing pSTAT6 Y641-PE conjugated antibody. After 1 hour incubation, cells are washed and the extent of STAT6 phosphorlyation in Ramos cells is measured by FACS analysis.

JAK2 = biological target: T3, JAK2 (Homo sapiens, UniProt O60674); assay: Z'-LYTE kinase assay JAK2; format: biochemical
T3 construct: 5 μl of catalytic domain recombinant Kinase enzyme+Tyr peptide substrate (Invitrogen, CA); purchased Invitrogen
Method in brief: as §1

JAK1 = biological target: T4, JAK1 (Homo sapiens, UniProt P23458); assay: Z'-LYTE kinase assay JAK1; format: biochemical
T4 construct: 5 μl of catalytic domain recombinant Kinase enzyme+Tyr peptide substrate (Invitrogen, CA); purchased Invitrogen
Method in brief: as §1

T1 sequence (P52333 822-1111 limits assumed): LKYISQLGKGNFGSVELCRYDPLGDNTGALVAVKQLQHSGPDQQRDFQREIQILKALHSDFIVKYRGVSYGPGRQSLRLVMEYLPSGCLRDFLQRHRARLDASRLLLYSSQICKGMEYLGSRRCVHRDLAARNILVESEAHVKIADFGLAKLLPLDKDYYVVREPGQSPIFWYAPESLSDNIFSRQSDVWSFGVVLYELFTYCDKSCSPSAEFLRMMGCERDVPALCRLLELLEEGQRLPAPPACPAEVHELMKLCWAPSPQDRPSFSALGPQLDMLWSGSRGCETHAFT
T4 sequence (P23458 875-1153 limits assumed): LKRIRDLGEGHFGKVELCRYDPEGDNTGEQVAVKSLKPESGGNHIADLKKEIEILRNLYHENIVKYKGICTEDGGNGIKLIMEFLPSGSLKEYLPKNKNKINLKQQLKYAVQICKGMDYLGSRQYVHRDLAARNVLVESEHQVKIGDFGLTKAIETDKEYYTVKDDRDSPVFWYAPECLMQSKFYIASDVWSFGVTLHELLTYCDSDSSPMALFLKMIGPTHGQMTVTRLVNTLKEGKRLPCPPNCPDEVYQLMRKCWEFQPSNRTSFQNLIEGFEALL
T3 sequence (O60674 849-1124 limits assumed): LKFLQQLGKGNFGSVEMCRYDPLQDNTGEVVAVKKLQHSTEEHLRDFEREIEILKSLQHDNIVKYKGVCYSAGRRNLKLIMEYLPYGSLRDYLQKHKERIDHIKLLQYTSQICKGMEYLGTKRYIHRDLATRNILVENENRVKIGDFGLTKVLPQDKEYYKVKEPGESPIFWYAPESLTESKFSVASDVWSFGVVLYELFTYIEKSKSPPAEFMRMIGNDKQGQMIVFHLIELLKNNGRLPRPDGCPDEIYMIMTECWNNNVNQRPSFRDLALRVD

SMILES	IC50 (JAK3) [µM]	IC50 (TYK2) [µM]	IC50 (JAK2) [µM]	IC50 (JAK1) [µM]	inhibition at 0.2 µM [1] [%]	inhibition at 1 µM [1] [%]
CC(=O)N1CCN(c2ccc(Nc3cc(NCc4ccccc4)c(C(N)=O)cn3)cc2)CC1 [Example 3, 6-(4-(4-acetylpiperazin-1-yl)phenylamino)-4-(benzylamino)nicotinamide]	0.01 to 0.1	0.1 to 1	0.01 to 0.1	0.1 to 1	22	43
Cc1ccc(Nc2cc(NCc3ccccc3)c(C(N)=O)cn2)cc1 [Example 10, 4-(benzylamino)-6-(p-tolylamino)nicotinamide]	0.1 to 1	> 1	> 1	> 1	6	20
COc1cccc(Nc2cc(NCc3ccccc3)c(C(N)=O)cn2)c1 [Example 11, 4-(benzylamino)-6-(3-methoxyphenylamino)nicotinamide]	0.01 to 0.1	> 1	> 1	> 1	11	15
COc1ccc(Nc2cc(NCc3ccccc3)c(C(N)=O)cn2)cc1 [Example 12, 4-(benzylamino)-6-(4-methoxyphenylamino)nicotinamide]	0.01 to 0.1	> 1	0.1 to 1	> 1	15	11
NC(=O)c1cnc(Nc2ccc(N3CCOCC3)cc2)cc1Nc1ccc(N2CCOCC2)cc1 [Example 16, 4,6-bis(4-morpholinophenylamino)nicotinamide]	0.01 to 0.1	> 1	> 1	> 1	17	46
NC(=O)c1cnc(Nc2ccc(C(=O)N3CCCC3)cc2)cc1NCC1CCCC1 [Example 41, 4-(cyclopentylmethylamino)-6-(4-(pyrrolidine-1-carbonyl)phenylamino)nicotinamide]	0.01 to 0.1	0.01 to 0.1	0.1 to 1	0.1 to 1	31	59
NC(=O)c1cnc(Nc2ccc(N3CCCC3=O)c(Cl)c2)cc1NCc1cccc(F)c1 [Example 62, 6-(3-chloro-4-(2-oxopyrrolidin-1-yl)phenylamino)-4-(3-fluorobenzylamino)nicotinamide]	0.01 to 0.1	> 1	0.1 to 1	0.1 to 1	29	42
Cc1cc(Nc2cc(NCc3ccccc3)c(C(N)=O)cn2)ccc1C(=O)N1CCC1 [Example 448, 6-(4-(azetidine-1-carbonyl)-3-methylphenylamino)-4-(benzylamino)nicotinamide]	0.001 to 0.01	0.01 to 0.1	0.01 to 0.1	0.1 to 1	–	–
Cc1cc(Nc2cc(NCc3ccccc3)c(C(N)=O)cn2)ccc1C(=O)NCCO [Example 449, 4-(benzylamino)-6-(4-(2-hydroxyethylcarbamoyl)-3-methylphenylamino)nicotinamide]	0.001 to 0.01	0.1 to 1	0.1 to 1	0.1 to 1	–	–
Cc1cc(Nc2cc(NCc3ccccc3)c(C(N)=O)cn2)ccc1C(=O)N(C)C1CC1 [Example 450, 4-(benzylamino)-6-(4-(cyclopropyl(methyl)carbamoyl)-3-methylphenylamino)nicotinamide]	0.001 to 0.01	0.01 to 0.1	0.1 to 1	0.1 to 1	–	–
Cc1cc(Nc2cc(NCc3ccccc3)c(C(N)=O)cn2)ccc1C(=O)N1CC=CC1 [Example 451, 4-(benzylamino)-6-(4-(2,5-dihydro-1H-pyrrole-1-carbonyl)-3-methylphenylamino)nicotinamide]	0.001 to 0.01	0.1 to 1	0.01 to 0.1	0.1 to 1	–	–
Cc1cc(Nc2cc(NCc3ccccc3)c(C(N)=O)cn2)ccc1C(=O)N(C)CCO [Example 452]	0.001 to 0.01	0.1 to 1	0.01 to 0.1	0.1 to 1	–	–
COCCN(C)C(=O)c1ccc(Nc2cc(NCc3ccccc3)c(C(N)=O)cn2)cc1C [Example 453, 4-(benzylamino)-6-(4-((2-methoxyethyl)(methyl)carbamoyl)-3-methylphenylamino)nicotinamide]	0.001 to 0.01	0.1 to 1	0.01 to 0.1	0.1 to 1	–	–

More lines, main results first:

IC50 (JAK3) [µM]	IC50 (TYK2) [µM]	IC50 (JAK2) [µM]	IC50 (JAK1) [µM]	SMILES	inhibition at 0.2 µM [1] [%]	inhibition at 1 µM [1] [%]
0.001 to 0.01	0.1 to 1	0.1 to 1	0.1 to 1	CNC(=O)[C@H]1CCCN(c2ccc(Nc3cc(NCc4ccccc4)c(C(N)=O)cn3)cc2)C1 [Example 4, (S)-4-(benzylamino)-6-(4-(3-(methylcarbamoyl)piperidin-1-yl)phenylamino)nicotinamide]	32	68
0.001 to 0.01	0.1 to 1	0.1 to 1	0.1 to 1	CC(=O)N1CCN(c2ccc(Nc3cc(NCc4ccccc4)c(C(N)=O)cn3)cc2C)CC1 [Example 5, 6-(4-(4-acetylpiperazin-1-yl)-3-methylphenylamino)-4-(benzylamino)nicotinamide]	37	61
0.001 to 0.01	0.1 to 1	0.1 to 1	0.1 to 1	CNC(=O)[C@@H]1CCCN(c2ccc(Nc3cc(NCc4ccccc4)c(C(N)=O)cn3)cc2)C1 [Example 6, (R)-4-(benzylamino)-6-(4-(3-(methylcarbamoyl)piperidin-1-yl)phenylamino)nicotinamide]	39	65
0.001 to 0.01	> 1	0.1 to 1	0.1 to 1	CNC(=O)[C@@H]1CCCN(c2ccc(Nc3cc(N[C@H](C)c4ccccc4)c(C(N)=O)cn3)cc2)C1 [Example 8, 6-(4-((R)-3-(methylcarbamoyl)piperidin-1-yl)phenylamino)-4-((R)-1-phenylethylamino)nicotinamide]	8	30
0.001 to 0.01	0.1 to 1	0.1 to 1	0.1 to 1	NC(=O)c1cnc(Nc2cccc(N3CCOCC3)c2)cc1NCc1ccccc1 [Example 31, 4-(benzylamino)-6-(3-morpholinophenylamino)nicotinamide]	27	50
0.001 to 0.01	0.1 to 1	0.1 to 1	0.1 to 1	NC(=O)c1cnc(Nc2ccc(C(=O)N3CCOCC3)cc2)cc1NCc1ccccc1 [Example 40, 4-(benzylamino)-6-(4-(morpholine-4-carbonyl)phenylamino)nicotinamide]	46	69
0.001 to 0.01	0.1 to 1	0.1 to 1	0.1 to 1	NC(=O)c1cnc(Nc2ccc(C(=O)N3CCC3)cc2)cc1NCc1ccccc1 [Example 46, 6-(4-(azetidine-1-carbonyl)phenylamino)-4-(benzylamino)nicotinamide]	54	80
0.001 to 0.01	> 1	0.01 to 0.1	0.1 to 1	NC(=O)c1cnc(Nc2cccc(OCCN3CCCC3)c2)cc1NCc1cccc(F)c1 [Example 58, 4-(3-fluorobenzylamino)-6-(3-(2-(pyrrolidin-1-yl)ethoxy)phenylamino)nicotinamide]	33	60
0.001 to 0.01	> 1	0.1 to 1	0.1 to 1	NC(=O)c1cnc(Nc2cccc(OCCN3CCCC3)c2)cc1NCc1cccnc1 [Example 60, 4-(pyridin-3-ylmethylamino)-6-(3-(2-(pyrrolidin-1-yl)ethoxy)phenylamino)nicotinamide]	22	40
0.001 to 0.01	0.1 to 1	0.01 to 0.1	0.1 to 1	Cc1cc(Nc2cc(NCc3ccccc3)c(C(N)=O)cn2)ccc1C(=O)N1CCOCC1 [Example 447, 4-(benzylamino)-6-(3-methyl-4-(morpholine-4-carbonyl)phenylamino)nicotinamide]	–	–
